Results from US5155209A, “R-(+) enantiomeric form of 7-(2, 3-epoxypropoxy) actinomycin D” (priority 1991, dated 1992).
Numbered stars: 1 amine (or outer) side, 2 acyl side, 3 side chain; on linkers, the order of the positions; unused ones are H or OH. Bridge positions count the residues as written; N and C are the ends. Square brackets hold non-standard residues; d marks the D form. Peptide text beside a SMILES is read from it. I, II: the chains in the order shown. Actinocin(9to1) = Cc1c2oc3c(C)ccc(C(=O)[*:1])c3nc-2c(C(=O)[*:2])c(N)c1=O; NMeV = CN[C@H](C(=O)O)C(C)C; Sar = CNCC(=O)O

Columns and labels:
[1] = system: B16 melanoma; assay: B16 melanoma implanted sc, drug iv (sc-iv) in BDF1 mice; assay type: in vivo
Experimental: (§1) Subcutaneously implanted B16 melanoma in BDF1 mice is a slow growing tumor, but its rate of growth becomes faster when it is implanted ip. […] This is not consistent with data in other tumors; however, in this connection it should be pointed out that the combined effects of drugs (or enantiomers in this case) can be manifested in several ways, i.e., they can be synergistic, additive, or subtractive.
(§2) 0.2 ml of brei (tumor weight/Hank's balanced salt solution, (1:5) of B16
(§3) implanted sc or ip into groups of nine BDF1 mice on day 0. Drugs
(§4) administered iv on day 1 or ip on days 1, 5, and 9, following tumor
(§5) administered ip on days 1, 5, and 9. OD, optimal dose in
(§6) milligrams/milliliter of vehicle, and administered iv or ip in 0.1 mL of
(§7) vehicle (5% v/v Me2 SOsaline). MST, median survival times in days of
(§8) tumor bearing and nondrug treated (control) or drugtreated mice. % ILS,
(§9) percent increase in life span of drug treated groups over the control
(§10) group of test animals, excluding survivors. (surv), number of sixty day
(§11) survivors/number of mice treated with drug.

[2] = system: RNA synthesis in L1210 cells; assay: Inhibition of RNA synthesis in L1210 ([5-3H]uridine incorporation); assay type: cell-based, Murine; conditions: [5-3H]uridine incorporation into RNA; read-out: inhibition of synthesis of nucleic acids in L1210 IC50 RNA
Experimental: (§12) ^a Drug concentration (micromolor) for 50% reduction of incorporation
(§13) of [methyl^14 C]thymidine into DNA^b and [5^3 H] uridine into
(§14) RNA^c from the rate of incorporation of the same radionucleotides in
(§15) nondrug treated L1210 cells growing actively in vitro.
(§16) Inhibition of nucleic acid synthesis in L1210 lymphoid leukemia cells by (±)-EPA and it optical isomers are assayed. […] To achieve this, a digestion of the nucleic acid pellet with DNase-free RNase enzyme, prior to final pelleting of the DNA precipitate is made to ensure that no more than ±8% contamination from […] into DNA takes place, and for this the necessary correction is made in the data reported in Table V.

[3] = cited from earlier work
[4] = system: Calf Thymus DNA; assay: Thermal denaturation (ΔTm) of DNA-drug complex; assay type: binding; conditions: 0.01 phosphate buffer pH 7.0, 5% Me2SO; in °C (unit assumed)
Experimental: ^a ΔTm = Tm of DNAdrug complex minus Tm of
drugfree DNA; concentration of drug 14.0 nM and that of DNA 70 nM in 0.01
phosphate buffer, pH 7.0, 5 × 10^3 EDTA and 5% Me2 SO.
DNA-binding experiments were carried out in 0.01M phosphate buffer (pH7), containing EDTA (10^-5 M).

[5] = system: purified calf thymus DNA; assay: Covalent and noncovalent (intercalative) binding to calf thymus DNA, [DNA base]/[drug] ratios; conditions: 20 mM Tris-HCl pH 7.4, 37° C.
Experimental: ^b Binding to purified calf thymus DNA in 20 mM TrisHCl, ph 7.4 buffe
at 37° C.; A values are molar ratios of DNA to drug based on the
total amount of drug that is bound both intercalatively and covalently to
^c B values are similar ratios assayed on the basis of drugs bound
entirely by covalent bonding to DNA base.

[6] = system: CCRF-CEM; assay: In vitro growth inhibition of CCRF-CEM human lymphoblastic leukemia cells; assay type: cell-based; conditions: purer (90%) form of isomers
Experimental: (§17) The analogues are assayed for in vitro growth inhibitory activity against several experimental tumor lines including human and murine leukemia, mouse melanoma, and human lymphoblastic leukemia.

[7] = system: P388/ADR; assay: Inhibition of growth in vitro of P388/ADR cells; assay type: cell-based, mouse; conditions: actively growing tumor cells
Experimental: as §17

[8] = system: L1210 cells; assay: Inhibition of growth of L1210 cells in culture; assay type: cell-based, Murine
Experimental: as §17

[9] = system: B16; assay: Inhibition of growth in vitro of B16 cells; assay type: cell-based, mouse; conditions: actively growing tumor cells
Experimental: as §17

[10] = system: leukemia L1210; assay: Activity in mice bearing leukemia L1210; assay type: in vivo; conditions: L1210 ip in CDF1 mouse
Excerpt: ^e OD, optimal dose of drugs in milligrams/killograms per injection,
administered ip on days 1, 5, and 9, following ip inoculation with
^f % ILS, percent increase in median life span in days, of the
tumorbearing drugtreated dying animals when compared with similar tumor
bearing mice but not treated with drugs. (surv), number of over 60 days
survivors/number of animals tested.

[11] = system: DNA synthesis in L1210 cells; assay: Inhibition of DNA synthesis in L1210 ([methyl-14C]thymidine incorporation); assay type: cell-based, Murine; conditions: [methyl-14C]thymidine incorporation into DNA; read-out: inhibition of synthesis of nucleic acids in L1210 IC50 DNA
Experimental: as §12, §13, §14, §15, §16

[12] = system: C26 colon carcinoma; assay: C26 colon carcinoma implanted in CDF1 mice, drug ip; assay type: in vivo
Experimental: implantation. Primary colon C26 carcinoma (tripan blue excluding, 2.5
× 10^5 cells/mouse) implanted in CDF1 mice on day 0; drug
as §5, §6, §7, §8, §9, §10, §11

[13] = system: B16 melanoma; assay: B16 melanoma implanted ip, drug ip (ip-ip) in BDF1 mice; assay type: in vivo
Experimental: as §1, §2, §3, §4, §5, §6, §7, §8, §9, §10, §11

[14] = system: P388/ADR; assay: Antitumor activity against ip implanted P388/ADR in CDF1 mice; assay type: in vivo; parameters: OD (optimal dose of drugs): unit not given here
Experimental: ^e Optimal dose of drugs.
^ f Median survival time of tumor bearing mice.
^g Percent increase in median life time in days of drugtreated dying
animals vs those of controls; (survivors), number of 60 days
survivors/number of animals tested in the group.
In order to examine a broader spectrum of activity, these optical isomers are tested in two other mouse leukemia cell lines in vivo. One cell line, P388/ADR, is a derivative of the above P388/S made resistant to intercalating agents like […].

[15] = B16 sc implanted, drug iv day 1
[16] = ip days 1, 5, 9, at optimal dose
[17] = B16 ip implanted, drug ip days 1, 5, 9

For `Cc1c2oc3c(C)ccc(C(=O)N[C@@H]4C(=O)N[C@H](C(C)C)C(=O)N5CCC[C@H]5C(=O)N(C)CC(=O)N(C)[C@@H](C(C)C)C(=O)O[C@@H]4C)c3nc-2c(C(=O)N[C@@H]2C(=O)N[C@H](C(C)C)C(=O)N3CCC[C@H]3C(=O)N(C)CC(=O)N(C)[C@@H](C(C)C)C(=O)O[C@@H]2C)c(N)c1=O` [1b(AMD), Actinomycin D] (I: T[dV]P[Sar][NMeV] / II: T[dV]P[Sar][NMeV]; ester I:1-I:C, II:1-II:C; linker I:N-II:N via Actinocin(9to1)), the “% ILS” value [1, 15] was 36%, the “(surv) sixty day survivors/number of mice treated” value (“(surv) sixty day survivors/number” for short) [1, 15] was 0/9 and the “MST (median survival time)” value [1, 15] was 45.0 days. The “OD (optimal dose)” value ([1]; B16 sc implanted, drug iv day 1, 0.1 mL vehicle) was 0.9 milligrams/milliliter of vehic, the “activity against sc implanted B16 tumor, in words” value ([1]; iv administered) was “only marginally active” and the IC50 [2] was 19 ± 6 nM. For the same molecule, the metabolism in vivo [3] was “not metabolized in vivo”, the “Tm (ΔTm = Tm of DNA-drug complex minus Tm of drug-free DNA)” value [4] was 7.1 ± 0.15 and the “[DNA base]/[drug] A: molar ratio of DNA to drug, total drug bound intercalatively and covalently” value [5] was 26 ± 2. For the same molecule, the “50% growth inhibitory dose (ID50)” value [6] was 12.5 nM, the “inhibition of growth ID50 P388/ADR” value [7] was 2500 ± 250 nM and the “inhibition of growth of L1210 cells in culture; ID50” value [8] was 60.1 ± 9.8 nM. For the same molecule, the “inhibition of growth ID50 B16” value [9] was 3.0 ± 1.0 nM, the “OD (optimal dose)” value ([10]; ip days 1, 5, 9) was 0.025 milligrams/killograms per inje and the “% ILS (percent increase in median life span)” value [10, 16] was 55%. The “(surv) number of over 60 days survivors/number of animals tested” value [10, 16] was 0/9, the IC50 [11] was 380 ± 28 nM and the “% ILS” value ([12]; drug ip days 1, 5, 9) was 52%. For the same molecule, the “(surv) sixty day survivors/number” value ([12]; drug ip days 1, 5, 9) was 0/10, the “MST” value ([12]; drug ip days 1, 5, 9) was 33.5 days and the “OD (optimal dose)” value ([12]; drug ip days 1, 5, 9, 0.1 mL vehicle) was 0.30 milligrams/milliliter of vehic. The “% ILS” value [13, 17] was 52%, the “(surv) sixty day survivors/number” value [13, 17] was 0/9 and the “MST (median survival time)” value [13, 17] was 29.0 days. The “OD (optimal dose)” value ([13]; B16 ip implanted, drug ip days 1, 5, 9, 0.1 mL vehicle) was 0.25 milligrams/milliliter of vehic, the “activity against ip implanted B16 tumor, in words” value ([13]; ip administered) was “only moderately active” and the “% ILS (percent increase in median life time vs controls)” value ([14]; ip qd 1-9, at optimal dose) was 33%. For the same molecule, the “(surv) number of 60 days survivors/number of animals tested” value ([14]; ip qd 1-9, at optimal dose) was 0/10, the “MST (median survival time)” value ([14]; ip qd 1-9, at optimal dose) was 12 days and the “OD (optimal dose of drugs)” value ([14]; treated ip qd 1-9) was 0.075.
